Experimental findings from US20090117074A1, “Sulfonylpyrroles as Histone Deacetylase Inhibitors” (NYCOMED GmbH, priority 2005, published 2009) are described below.

By melting point is commonly meant the temperature of the solid-liquid transition. The EC50 is the concentration that produces a half-maximal response.

The test system of data set [1] is HeLa cervical carcinoma cell line. Description: Cellular cytotoxicity assay (Alamar Blue), HeLa. It is filed as cell-based. The following applies: Homo sapiens, 48 or 72 hours, read-out: IC50, anti-proliferative/cytotoxic activity. The protocol:
(§1) The anti-proliferative activity of the histone deacetylase inhibitory compounds as described herein, Is evaluated with the HeLa cervical carcinoma cell line (ATCC CCL2) and A549 non-small cell lung cancer cell line (ATCC CCL185) using the Alamar Blue (Resazurin) cell viability assay (O'Brien et al. Eur J Biochem 267, 5421-5426, 2000). Resazurin is reduced to the fluorescent resorufin by cellular dehydrogenase activity, correlating with viable, proliferating cells. Test compounds are dissolved as 20 mM solutions in dimethylsulfoxide (DMSO) and subsequently diluted in semi-logarithmic steps. HeLa or A549 cells are seeded into 96 well flat bottom plates at a density of 1000 and 2000 cells per well, respectively, in a volume of 200 μl per well. 24 hours after seeding 1 μl each of the compound dilutions are added into each well of the 96 Well plate. Each compound dilution is tested as quadruplicates.
(§2) Wells containing untreated control cells are filled with 200 μl DMEM medium containing 0.5% v:v DMSO. The cells are then incubated with the substances for 48 or 72 hours at 37° C. in a humidified atmosphere containing 5% carbon dioxide. To determine the viability of the cells, 20 μl of an Resazurin solution (Sigma; 90 mg/I) were added. After 4 hours incubation at 37° C. the fluorescence is measured at an extinction of 544 nm and an emission of 590 nm. For the calculation of the cell viability the emission value from untreated cells is set as 100% viability and the emission rates of treated cells are set in relation to the values of untreated cells. Viabilities are expressed as % values. The corresponding IC50 values of the compounds for cytotoxic activity are determined from the concentration-effect curves by means of non-linear regression.
Background: Resazurin is reduced to fluorescent resorufin, in cell work by metabolically active cells.

Data set [2] concerns A549 cells. The data set is described as follows: Apoptosis induction (cell death detection ELISA). It is filed as cell-based, human. The following applies: 10 μM, 48 hours. How it is done:
The induction of apoptosis is measured by using the cell death detection ELISA (Art. No. 1774425, Roche Biochemicals, Mannheim, Germany). A549 NSCLC cells are seeded into 96 well flat bottom plates at a density of 3×10 E3 cells/well in a total volume of 200 μl/well. 24 hours after seeding, 1 μl each of the compound dilutions in DMEM are added in a total volume of 200 μl into each well (final volume 200 μl/well). Each compound dilution is tested at least as triplicates. Wells containing untreated control cells are filled with 200 μl DMEM containing 0.5 vol % DMSO. The cells are incubated with test compound for 48 hours at 37° C. in a humidified atmosphere containing 5% carbon dioxide. As a positive control for the induction of apoptosis, cells are treated with 50 μM Cisplatin (Gry Pharmaceuticals, Kirchzarten, Germany). Medium is then removed and the cells lysed in 200 μl lysis buffer. After centrifugation as described by the manufacturer, 10 μl of cell lysate is processed as described in the protocol. The degree of apoptosis is calculated as follows: The absorbance at 405 nm obtained with lysates from cells treated with 50 μM cisplatin is set as 100 cpu (cisplatin units), while an absorbance at 405 nm of 0.0 is set as 0.0 cpu. The degree of apoptosis is expressed as cpu in relation to the value of 100 cpu reached with the lysates obtained from cells treated with 50 μM cisplatin.
A general note: In an ELISA, binding on a coated surface is turned into a signal by an enzyme label.

Data set [3] relates to A549 NSCLC cell line. Description: Cellular cytotoxicity assay (Alamar Blue), A549. It is filed as cell-based. The following applies: Homo sapiens, 48 or 72 hours, read-out: IC50, anti-proliferative/cytotoxic activity. The protocol: as §1, §2
Data set [4] concerns histone H3 hyperacetylation in HeLa cells. The data set is described as follows: Cellular histone H3 hyperacetylation assay. The note with it: Homo sapiens, 24 h incubation. It counts as cell-based. The text has this: To assess the cellular efficacy of a histone deacetylase inhibitor in vitro, an assay is set up in black clear-bottom 96-well plates and optimized for use on the Cellomics “ArrayScan II” platform for a quantitative calculation of histone acetylation. The protocol uses a polyclonal rabbit antibody, specifically binding to acetylated lysine 23 or, alternatively, acetylated lysine 9+14 of human histone H3 on fixed cells with an Alexa Fluor 488 labeled goat anti rabbit-IgG used for counterstaining (modified from Braunger et al. AACR annual conference 2003, Abstract 4556).
5×10^3 HeLa cervical carcinoma cells/well (ATCC CCL-2) in 200 μl Dulbecco's modified Eagle's medium (DMEM) containing 10% fetal calf serum are seeded at day 1 in Packard view plates and incubated for 24 h under standard cell culture conditions. On day 2, 1 μl test compound (200× final concentration) is added and incubation continued for further 24 h. On day 3, the culture medium is discarded and attached cells fixed for 15 min at room temperature by addition of 100 μl fixation buffer (3.7% v:v formaldehyde in phosphate buffered saline/PBS). After discarding the fixation buffer and one wash with blocking solution (1% BSA, 0.3% Tween 20 in PBS), cells are permeabilized at room temperature by addition of 100 μl/well permeabilization buffer (30.8 mM NaCl, 0.54 mM Na2HPO4, 0.31 mM KH2PO4, 0.1% v:v Triton X-100) for 15 min at room temperature. After discarding the permeabilization buffer and washing twice with 100 μl/well blocking solution at room temperature, the 1st antibody (anti-K23 histone H3 antibody, Cell Signaling No. 9674 or, alternatively, anti-K9+14 histone H3 antibody, Calbiochem No. 382158) in blocking solution (50 μl/well) is added. After incubation for 1 h at room temperature, the wells are washed twice at room temperature with 100 μl/well blocking solution before addition of the 2nd antibody (goat-anti-rabbit Alexa Fluor 488; MoBiTec No. A-11008) in blocking solution (50 μl/well). After further incubation for 1 h at room temperature, wells are washed twice with 100 μl/well blocking solution at room temperature. Finally, 100 μl/well PBS are added and image analysis performed on the Cellomics “ArrayScan II” platform. For EC50 determination, the percentage of positive cells showing nuclear fluorescence is determined and EC50 calculation done from concentration-effect curves by means of non-linear regression. For calibration, a positive (reference HDAC inhibitors like SAHA or LBH589) and negative control is included.

Structures can show the parent of a compound that is named as a salt.

Take `Cc1nc(C)c(S(=O)(=O)n2ccc(C=CC(=O)NO)c2)s1` (as salt: HCl) [Example 11, (E)-3-[1-(2, Dimethyl-thiazole-5-sulfonyl)-1H-pyrrol-3-yl]-N-hydroxy-acrylamide]: the melting point was 181 to 182 °C.
In the case of `O=C(/C=C/c1ccn(S(=O)(=O)c2ccc3ccccc3c2)c1)NO` [Example 1, (E)-N-Hydroxy-3-[1-(naphthalene-2-sulfonyl)-1H-pyrrol-3-yl]-acrylamide], the results for the IC50 in data set [1] and in data set [3] were 230 to 4200 nM and 313 to 6200 nM, respectively. Besides, the “Apoptosis induction (cisplatin units; 50 μM cisplatin = 100 cpu)” value in data set [2] was 310 cpu. Further, the EC50 in data set [4] lay within 190 to 10000 nM.
In the case of `Nc1ccccc1NC(=O)/C=C/c1ccn(S(=O)(=O)c2ccc3ccccc3c2)c1` [Example 2, (E)-N-(2-Amino-phenyl)-3-[1-(naphthalene-2-sulfonyl)-1H-pyrrol-3-yl]-acrylamide], the IC50 in data set [1] fell in the range of 230 to 4200 nM; in data set [3], 313 to 6200 nM. Also, in data set [2], the “Apoptosis induction (cisplatin units; 50 μM cisplatin = 100 cpu)” value came to 46 cpu. The same molecule gave an EC50 in data set [4] of 190 to 10000 nM.
For the molecule `O=C(/C=C/c1ccn(S(=O)(=O)c2cccnc2)c1)NO` [Example 3, (E)-N-Hydroxy-3-[1-(pyridine-3-sulfonyl)-1H-pyrrol-3-yl]-acrylamide], the melting point was 161.4 to 176.4 °C. For the same molecule, the IC50 in data set [1] lay in the range of 230 to 4200 nM. Besides, the IC50 in data set [3] was in the range of 313 to 6200 nM.
For the molecule `O=C(/C=C/c1ccn(S(=O)(=O)c2ccc(N3CCOCC3)nc2)c1)NO` [Example 4, (E)-N-Hydroxy-3-[1-(6-morpholin-4-yl-pyridine-3-sulfonyl)-1H-pyrrol-3-yl]-acrylamide], the IC50 in data set [1] is 230 to 4200 nM; in data set [3] it was 313 to 6200 nM. The molecule also returned an EC50 in data set [4] of 190 to 10000 nM.
`Cn1cc(S(=O)(=O)n2ccc(/C=C/C(=O)NO)c2)cn1` [Example 8, (E)-N-Hydroxy-3-[1-(1-methyl-1H-pyrazole-4-sulfonyl)-1H-pyrrol-3-yl]-acrylamide]: the figures for the IC50 in data set [1] and in data set [3] were 230 to 4200 nM and 313 to 6200 nM, respectively.
Take `O=C(/C=C/c1ccn(S(=O)(=O)c2cc3ccccc3s2)c1)NO` [Example 9, (E)-3-[1-(Benzo[b]thiophene-2-sulfonyl)-1H-pyrrol-3-yl]-N-hydroxy-acrylamide]: the IC50 in data set [1] was in the range of 230 to 4200 nM; in data set [3] it was 313 to 6200 nM. The molecule further had an EC50 in data set [4] of 190 to 10000 nM.
The like results for `O=C(/C=C/c1ccn(S(=O)(=O)c2ccc3ncsc3c2)c1)NO` [Example 10, (E)-3-[1-(Benzothiazole-6-sulfonyl)-1H-pyrrol-3-yl]-N-hydroxy-acrylamide] were, in that order, 230 to 4200 nM, 313 to 6200 nM and 190 to 10000 nM.
In the case of `Cc1nc(C)c(S(=O)(=O)n2ccc(C=CC(=O)NO)c2)s1` [Example 11, (E)-3-[1-(2, Dimethyl-thiazole-5-sulfonyl)-1H-pyrrol-3-yl]-N-hydroxy-acrylamide], the values for the IC50 in data set [1] and in data set [3] were 230 to 4200 nM and 313 to 6200 nM, respectively.
In the case of `Cc1nc(S(=O)(=O)n2ccc(/C=C/C(=O)NO)c2)cn1C` [Example 12, (E)-3-[1-(1,2-Dimethyl-1H-imidazole-4-sulfonyl)-1H-pyrrol-3-yl]-N-hydroxy-acrylamide], the melting point lay within 190 to 194 °C.
